Assay: Plasma pharmacokinetics of BI 187004 after single oral doses (LC–MS/MS)
Conditions: male, human, plasma, po; for concentration at 6 h: planned time 6 h; for concentration at 8 h: planned time 8 h; for concentration at 10 h: planned time 10 h; for concentration at 12 h: planned time 12 h; for concentration at 36 h: planned time 36 h; for concentration at 48 h: planned time 48 h; for concentration at 72 h: planned time 72 h; for concentration at 96 h: planned time 96 h; for concentration at 0.5 h: planned time 0.5 h; for concentration at 1 h: planned time 1 h; for concentration at 1.5 h: planned time 1.5 h; for concentration at 2 h: planned time 2 h; for concentration at 2.5 h: planned time 2.5 h; for concentration at 3 h: planned time 3 h; for concentration at 4 h: planned time 4 h; for concentration at 5 h: planned time 5 h
[1] = 20 mg, BI 187004 plasma concentrations, 20 mg single oral, gMean
[2] = 20 mg, BI 187004 plasma concentrations, 20 mg single oral, Max
[3] = 20 mg, BI 187004 plasma concentrations, 20 mg single oral, Mean
[4] = 20 mg, BI 187004 plasma concentrations, 20 mg single oral, Median
[5] = 20 mg, BI 187004 plasma concentrations, 20 mg single oral, Min
[6] = 40 mg, BI 187004 plasma concentrations, 40 mg single oral, Max
[7] = 40 mg, BI 187004 plasma concentrations, 40 mg single oral, Mean
[8] = 40 mg, BI 187004 plasma concentrations, 40 mg single oral, Median
[9] = 40 mg, BI 187004 plasma concentrations, 40 mg single oral, Min
[10] = 40 mg, BI 187004 plasma concentrations, 40 mg single oral, gMean
[11] = 40 mg, BI 187004 plasma concentrations, 40 mg single oral, individual subjects

Compound `N#Cc1ccc2c(c1)[C@H]1CCCN(C(=O)c3ccc4[nH]cnc4c3)[C@H]1C2` [BI 187004] has a concentration at 6 h [1] of 547 nM, a concentration at 8 h [2] of 645 nM and a concentration at 8 h [3] of 464 nM. It also gave a concentration at 8 h [4] of 398 nM, a concentration at 8 h [5] of 354 nM and a concentration at 8 h [1] of 449 nM. For the same compound, the concentration at 8 h (20 mg, BI 187004 plasma concentrations, 20 mg single oral, individual subjects) was 645 nM, the concentration at 10 h [2] was 529 nM and the concentration at 10 h [3] was 398 nM. It also gave a concentration at 10 h [4] of 398 nM, a concentration at 10 h [5] of 253 nM and a concentration at 10 h [1] of 382 nM. It also gave a concentration at 12 h [2] of 457 nM, a concentration at 12 h [3] of 331 nM and a concentration at 12 h [4] of 311 nM. The concentration at 12 h [5] was 221 nM, the concentration at 12 h [1] was 316 nM and the concentration at 24 h (20 mg, BI 187004 plasma concentrations, 20 mg single oral, planned time 24 h, Max) was 353 nM. The concentration at 24 h (20 mg, BI 187004 plasma concentrations, 20 mg single oral, planned time 24 h, Mean) was 187 nM, the concentration at 24 h (20 mg, BI 187004 plasma concentrations, 20 mg single oral, planned time 24 h, Median) was 155 nM and the concentration at 24 h (20 mg, BI 187004 plasma concentrations, 20 mg single oral, planned time 24 h, Min) was 85.8 nM. The concentration at 24 h (20 mg, BI 187004 plasma concentrations, 20 mg single oral, planned time 24 h, gMean) was 161 nM, the concentration at 36 h [2] was 145 nM and the concentration at 36 h [3] was 67.3 nM. The concentration at 36 h [4] was 51.1 nM, the concentration at 36 h [5] was 27.8 nM and the concentration at 36 h [1] was 55.4 nM. For the same compound, the concentration at 48 h [2] was 104 nM, the concentration at 48 h [3] was 45.6 nM and the concentration at 48 h [4] was 34.4 nM. It also gave a concentration at 48 h [5] of 15.8 nM, a concentration at 48 h [1] of 35.9 nM and a concentration at 72 h [2] of 43.9 nM. The concentration at 72 h [3] was 20.5 nM, the concentration at 72 h [4] was 16.4 nM and the concentration at 72 h [5] was 6.98 nM. It also gave a concentration at 72 h [1] of 16.5 nM, a concentration at 96 h [2] of 18.2 nM and a concentration at 96 h [3] of 10.4 nM. The concentration at 96 h [4] was 9.48 nM, the concentration at 96 h [5] was 5.78 nM and the concentration at 96 h [1] was 9.42 nM. It also gave a concentration at 24 h (20 mg, C24 gMean (%gCV), 20 mg single oral dose) of 161 nM, an AUC(0-inf) (40 mg) of 25.9 µM·h and an AUC(0-t) (40 mg) of 19.9 µM·h. For the same compound, the Cmax (40 mg) was 2210 nM, the Tmax (40 mg) was 1 h and the Vd/F (40 mg) was 123 L. The half-life (40 mg) was 18.9 h, the concentration at 0.5 h [6] was 2530 nM and the concentration at 0.5 h [7] was 1760 nM. For the same compound, the concentration at 0.5 h [8] was 1980 nM, the concentration at 0.5 h [9] was 487 nM and the concentration at 0.5 h [10] was 1520 nM. It also gave a concentration at 1 h [6] of 2820 nM, a concentration at 1 h [7] of 2170 nM and a concentration at 1 h [8] of 2410 nM. The concentration at 1 h [9] was 974 nM, the concentration at 1 h [10] was 2050 nM and the concentration at 1.5 h [6] was 2610 nM. The concentration at 1.5 h [7] was 1950 nM, the concentration at 1.5 h [8] was 2160 nM and the concentration at 1.5 h [9] was 1020 nM. It also gave a concentration at 1.5 h [10] of 1870 nM, a concentration at 2 h [6] of 2410 nM and a concentration at 2 h [7] of 1760 nM. It also gave a concentration at 2 h [8] of 1860 nM, a concentration at 2 h [9] of 1040 nM and a concentration at 2 h [10] of 1700 nM. The concentration at 2.5 h [6] was 2180 nM, the concentration at 2.5 h [7] was 1750 nM and the concentration at 2.5 h [8] was 1870 nM. The concentration at 2.5 h [9] was 1160 nM, the concentration at 2.5 h [10] was 1710 nM and the concentration at 2.5 h [11] was 2180 nM. It also gave a concentration at 3 h [6] of 1810 nM, a concentration at 3 h [7] of 1530 nM and a concentration at 3 h [8] of 1560 nM. It also gave a concentration at 3 h [9] of 1130 nM, a concentration at 3 h [10] of 1510 nM and a concentration at 3 h [11] of 1680 nM. The concentration at 4 h [6] was 1700 nM, the concentration at 4 h [7] was 1460 nM and the concentration at 4 h [8] was 1530 nM. For the same compound, the concentration at 4 h [9] was 1020 nM, the concentration at 4 h [10] was 1440 nM and the concentration at 4 h [11] was 1640 nM. The concentration at 5 h [6] was 1610 nM, the concentration at 5 h [7] was 1320 nM and the concentration at 5 h [8] was 1350 nM. It also gave a concentration at 5 h [9] of 888 nM, a concentration at 5 h [10] of 1290 nM and a concentration at 5 h [11] of 1440 nM. For the same compound, the concentration at 6 h [6] was 1400 nM, the concentration at 6 h [7] was 1120 nM and the concentration at 6 h [8] was 1130 nM. The concentration at 6 h [9] was 736 nM, the concentration at 6 h [10] was 1090 nM and the concentration at 6 h [11] was 1230 nM. It also gave a concentration at 8 h [6] of 1190 nM, a concentration at 8 h [7] of 951 nM and a concentration at 8 h [8] of 987 nM. It also gave a concentration at 8 h [9] of 606 nM, a concentration at 8 h [10] of 929 nM and a concentration at 8 h [11] of 1000 nM.
